Target: T1, MyD88^TIR (Homo sapiens, UniProt Q99836)
T1 construct: MyD88 (residues 148–296); 6xHis; made in house; host or cells: E. coli BL21 (DE3)
Assay: T‐Surf phage library (P8 and P3) selection against MyD88^TIR, four rounds, NGS read counts
Type: binding
Settings: for P8_MyD88 Rank (after) / P8_MyD88 Rank (before): P8 library; for P3_MyD88 Rank (after) / P3_MyD88 Rank (before): P3 library; for Population: P8_MyD88 pool: P8 T-Surf phage library, 4th round of selection against MyD88 TIR, share of NGS reads
Method in brief: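 Read counts come from NGS of phage pools enriched over four selection rounds on the plate‐coated TIR domain (5 µg mL^−1). Each round: 1 h phage binding at room temperature after 0.2% BSA blocking, Tween washes, acid elution, amplification in E. coli TG1 with M13KO7 helper.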

[1] = P8_MyD88: rank by count after grouping
[2] = P8_MyD88: rank by count before grouping
[3] = 4R selection against MyD88, rank after grouping
[4] = 4R selection against MyD88, rank before grouping
[5] = selection against MyD88 TIR, rank by count after grouping
[6] = selection against MyD88 TIR, rank by count before grouping
[7] = P3_MyD88: rank by count after grouping
[8] = P3_MyD88: rank by count before grouping
[9] = selection against MyD88, rank by count after grouping
[10] = selection against MyD88, rank by count before grouping
[11] = selection against MyD88, rank after grouping
[12] = selection against MyD88, rank before grouping
[13] = P8_MyD88: rank by NGS read count after grouping
[14] = P8_MyD88: rank by NGS read count before grouping

T1 sequence (Q99836 148-296): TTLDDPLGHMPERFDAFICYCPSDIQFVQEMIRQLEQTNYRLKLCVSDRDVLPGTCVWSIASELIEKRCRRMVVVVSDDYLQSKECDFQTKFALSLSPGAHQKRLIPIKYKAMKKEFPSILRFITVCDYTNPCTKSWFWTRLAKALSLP

## DPQDLDWFYEHLFSQM
[1]
  Rank (after): 411
[2]
  Rank (before): 2801

## YLRADDLVLGKTAVC
[3]
  P8_MyD88 Rank (after): 643
[4]
  P8_MyD88 Rank (before): 2038

## WVFQTLYSTLEDEYAF
[5]
  P8_MyD88 Rank (after): 228
[6]
  P8_MyD88 Rank (before): 372

## LKCGEPYFWSKLRYAM
[7]
  Rank (after): 137
[8]
  Rank (before): 2407

## NELIDVGHSYSMHRGG
[9]
  P3_MyD88 Rank (after): 743
[10]
  P3_MyD88 Rank (before): 3387

## VANILGYHCKGWENFV
[3]
  P8_MyD88 Rank (after): 674
[4]
  P8_MyD88 Rank (before): 2170

## ELDFSHFWLFDGQAT
[5]
  P8_MyD88 Rank (after): 218
[6]
  P8_MyD88 Rank (before): 358

## DQHLDLPRGKAIKPELLG
[7]
  Rank (after): 475
[8]
  Rank (before): 2066

## SELSVVDDGSVSPLGM
[7]
  Rank (after): 472
[8]
  Rank (before): 3068

## YQLVFVHFWMFDGRTA
[11]
  P8_MyD88 Rank (after): 518
[12]
  P8_MyD88 Rank (before): 2106

## DPQDLDWFSERLVILF
[13]
  Rank (after): 1012
[14]
  Rank (before): 2747

## DPQDLDWFYERLLS
[1]
  Rank (after): 471
[2]
  Rank (before): 2786

## YELDFSHFSLFEGQAT
[1]
  Rank (after): 463
[2]
  Rank (before): 1949

## DPQDLDWFYERLVSPL
[1]
  Rank (after): 99
[2]
  Rank (before): 396

## VSSFISYLIAAFNRQG
[1]
  Rank (after): 116
[2]
  Rank (before): 124
  Population: 0.0173%

## YAASPWWFDELVKILE
[13]
  Rank (after): 906
[14]
  Rank (before): 1733

## WVLHKVLQILHAREIY
[13]
  Rank (after): 976
[14]
  Rank (before): 1390

## PDEVKRTVGLTFSLSL
[9]
  P8_MyD88 Rank (after): 739
[10]
  P8_MyD88 Rank (before): 3407

## KERPFGAQRAEKCVP
[7]
  Rank (after): 447
[8]
  Rank (before): 3673

## YKLALHFRDWLLGAYI
[9]
  P8_MyD88 Rank (after): 742
[10]
  P8_MyD88 Rank (before): 2138

## DHLDPSHLRKQSGEFG
[9]
  P3_MyD88 Rank (after): 734
[10]
  P3_MyD88 Rank (before): 1991

## YAFTGHLHSYLVQRSV
[7]
  Rank (after): 125
[8]
  Rank (before): 1530

## NFGYSTWALDELVKIM
[1]
  Rank (after): 123
[2]
  Rank (before): 132
  Population: 0.0135%

## DWVCDYLLPDREGPAG
[13]
  Rank (after): 984
[14]
  Rank (before): 2474

## DWVWDYMLTNLEGPAG
[9]
  P8_MyD88 Rank (after): 708
[10]
  P8_MyD88 Rank (before): 2455

## VANILGYHCIDWEHFVGIED
[9]
  P8_MyD88 Rank (after): 722
[10]
  P8_MyD88 Rank (before): 2169

## SRDYASSPWALDELVL
[7]
  Rank (after): 146
[8]
  Rank (before): 3095

## NDLLHVWSSKANSLVG
[11]
  P3_MyD88 Rank (after): 527
[12]
  P3_MyD88 Rank (before): 3389

## NELVKVWSSKANRLVG
[7]
  Rank (after): 393
[8]
  Rank (before): 3447

## NELVHVWSSKANSLW
[5]
  P3_MyD88 Rank (after): 262
[6]
  P3_MyD88 Rank (before): 3420

## YNLAHYLYVSMRASGI
[9]
  P8_MyD88 Rank (after): 715
[10]
  P8_MyD88 Rank (before): 2132

## DWVWDYLLQSGRPSG
[13]
  Rank (after): 932
[14]
  Rank (before): 2451

## SAAYYEFGERLIGRVE
[13]
  Rank (after): 873
[14]
  Rank (before): 3705

## DPQVLEWFYELLVSLL
[9]
  P8_MyD88 Rank (after): 684
[10]
  P8_MyD88 Rank (before): 2656

## VANIGLIGSILWALK
[13]
  Rank (after): 942
[14]
  Rank (before): 2163

## WAQEQDGFWVRLIEAL
[1]
  Rank (after): 449
[2]
  Rank (before): 878

## LVAHEITKKLKSFATI
[3]
  P3_MyD88 Rank (after): 641
[4]
  P3_MyD88 Rank (before): 2309

## LVAHRFSKKMKIFATM
[3]
  P3_MyD88 Rank (after): 621
[4]
  P3_MyD88 Rank (before): 2315

## VQWEDPWFWDKLAYEM
[1]
  Rank (after): 460
[2]
  Rank (before): 2253

## EWIREQRRSALKERLP
[3]
  P3_MyD88 Rank (after): 639
[4]
  P3_MyD88 Rank (before): 2171

## VQWDELLQILHARELF
[13]
  Rank (after): 965
[14]
  Rank (before): 2249

## WDFASSTWWLRELLQIA
[5]
  P8_MyD88 Rank (after): 272
[6]
  P8_MyD88 Rank (before): 524

## WALNELLQILHARELF
  Population: 0.00617%

## VSHLIDAFERYGIMFFIDT
[11]
  P8_MyD88 Rank (after): 572
[12]
  P8_MyD88 Rank (before): 2260

## DPQDLDLFYERLVSMF
[3]
  P8_MyD88 Rank (after): 673
[4]
  P8_MyD88 Rank (before): 2739

## WALAELLKILYAKEPM
[9]
  P8_MyD88 Rank (after): 763
[10]
  P8_MyD88 Rank (before): 1399

## SCFCEELCCVLELSKK
[3]
  P3_MyD88 Rank (after): 656
[4]
  P3_MyD88 Rank (before): 2938

## QQVVRYRLEIVRVTKL
[9]
  P3_MyD88 Rank (after): 738
[10]
  P3_MyD88 Rank (before): 2882

## DWVWEHFVGIEDHIK
[11]
  P8_MyD88 Rank (after): 513
[12]
  P8_MyD88 Rank (before): 2472

## SSFREGLCRLLELSKQ
[9]
  P3_MyD88 Rank (after): 725
[10]
  P3_MyD88 Rank (before): 3201

— article PMC11714206, “Massively Parallel Screening of Toll/Interleukin‐1 Receptor (TIR)‐Derived Peptides Reveals Multiple Toll‐Like Receptors (TLRs)‐Targeting Immunomodulatory Peptides” (Advanced Science, 2024)
